From publication PMC12434667 (Journal of Medicinal Chemistry, 2025)
Values joined by “and” are separate entries in the source; they are usually repeats but may differ in a detail not shown here. Equal entries are not always repeated.

What was measured:
Rat PK = format: in vivo; details: plasma, po, 10 mg/kg
CDK1 = CDK1 (Homo sapiens, UniProt P06493); test: 24-hr AlphaLISA of CDK1 degradation in TOV21G cells; format: cell-based; details: vs CDK2 degradation
CDK4 = CDK4 (Homo sapiens, UniProt P11802); test: 24-hr western blot of CDK4 degradation in TOV21G cells; format: cell-based; details: read-out: TOV21G CDK4 DC50
CDK6 = CDK6 (Homo sapiens, UniProt Q00534); test: 24-hr western blot of CDK6 degradation in TOV21G cells; format: cell-based; details: read-out: TOV21G CDK6 DC50
CDK9 = CDK9 (Homo sapiens, UniProt P50750); test: 24-hr AlphaLISA of CDK9 degradation in TOV21G cells; format: cell-based
pRB S807/811 = test: 24-hr AlphaLISA of pRB inhibition in MKN1 cells; format: cell-based; details: Homo sapiens, MKN-1, 24 h
Monkey PK = format: in vivo
Dog PK = format: in vivo
human PBMC cells = test: Tandem mass tag deep proteome profiling; format: cell-based; details: 800 nM, 8 h, over 8000 proteins
[1] = Plasma PK in HCC1569 xenograft model; format: in vivo; details: mouse HCC1569 xenograft; for AUC0–24h free: mouse PPB 98.02%
Plasma protein binding = format: in vitro ADME; details: mouse
HCC1569 tumor xenograft = HCC1569 tumor xenograft efficacy; format: in vivo, mouse; details: 28 days; for day 28 %dTV (mean ± SEM): HCC1569 xenograft mice
pRB = test: Tumor AlphaLISA; format: in vivo, mouse; details: HCC1569 xenograft, sustained

Chain of CDK9 (P50750 whole entry): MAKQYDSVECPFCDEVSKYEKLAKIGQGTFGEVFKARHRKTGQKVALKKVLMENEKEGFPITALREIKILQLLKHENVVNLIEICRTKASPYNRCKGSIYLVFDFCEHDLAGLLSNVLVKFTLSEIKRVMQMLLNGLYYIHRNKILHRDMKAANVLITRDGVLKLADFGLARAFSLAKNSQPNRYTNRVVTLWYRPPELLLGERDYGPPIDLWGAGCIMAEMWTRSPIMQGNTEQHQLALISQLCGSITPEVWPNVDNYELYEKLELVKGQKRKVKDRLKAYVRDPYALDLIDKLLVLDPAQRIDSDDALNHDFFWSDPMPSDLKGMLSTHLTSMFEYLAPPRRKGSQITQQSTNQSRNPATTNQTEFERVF
Chain of CDK4 (P11802 whole entry): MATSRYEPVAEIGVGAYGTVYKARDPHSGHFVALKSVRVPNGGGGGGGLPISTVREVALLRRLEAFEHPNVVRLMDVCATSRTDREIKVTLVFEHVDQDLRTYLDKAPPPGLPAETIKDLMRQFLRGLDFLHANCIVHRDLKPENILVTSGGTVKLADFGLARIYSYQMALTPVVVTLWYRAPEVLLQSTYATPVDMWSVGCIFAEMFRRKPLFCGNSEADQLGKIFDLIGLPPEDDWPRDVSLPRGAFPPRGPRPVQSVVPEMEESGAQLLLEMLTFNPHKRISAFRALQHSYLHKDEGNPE
Chain of CDK1 (P06493 whole entry): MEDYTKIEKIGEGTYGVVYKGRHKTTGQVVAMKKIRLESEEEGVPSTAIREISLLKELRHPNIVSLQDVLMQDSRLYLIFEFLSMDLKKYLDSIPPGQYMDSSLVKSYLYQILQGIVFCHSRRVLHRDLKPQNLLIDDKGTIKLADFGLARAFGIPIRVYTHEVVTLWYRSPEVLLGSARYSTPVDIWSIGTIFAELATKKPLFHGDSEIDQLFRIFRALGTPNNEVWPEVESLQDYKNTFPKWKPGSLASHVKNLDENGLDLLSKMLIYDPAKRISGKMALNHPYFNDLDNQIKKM
Chain of CDK6 (Q00534 whole entry): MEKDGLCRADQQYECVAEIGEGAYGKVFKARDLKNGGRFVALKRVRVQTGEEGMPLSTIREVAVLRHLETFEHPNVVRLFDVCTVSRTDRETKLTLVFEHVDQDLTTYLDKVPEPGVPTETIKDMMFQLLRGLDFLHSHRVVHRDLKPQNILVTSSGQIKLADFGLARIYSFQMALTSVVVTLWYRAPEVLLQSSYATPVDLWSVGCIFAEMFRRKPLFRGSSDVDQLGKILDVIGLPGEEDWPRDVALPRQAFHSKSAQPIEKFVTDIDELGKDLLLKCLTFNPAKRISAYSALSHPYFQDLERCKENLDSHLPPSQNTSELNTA

SMILES: C[C@]1(O)CCCN(c2nc(Nc3ccc(S(=O)(=O)N[C@@H]4CCN(CC5CCN(c6ccc(C7CCC(=O)NC7=O)cc6F)CC5)C[C@@H]4F)cc3F)ncc2C(F)(F)F)C1 (stereo partly drawn) [Compound 37, N-[(3S,4R)-1-[[1-[4-(2,6-Dioxo-3-piperidyl)-2-fluoro-phenyl]-4-piperidyl]methyl]-3-fluoro-4-piperidyl]-3-fluoro-4-[[4-[(3S)-3-hydroxy-3-methyl-1-piperidyl]-5-(trifluoromethyl)pyrimidin-2-yl]amino]benzenesulfonamide]
- AUC(0-t) (Rat PK): 3.63 µM·h
- Cmax (Rat PK): 261 nM
- degradation selectivity over CDK1 (CDK1): > 100 fold
- DC50 (CDK4): > 10000 nM
- DC50 (CDK6): 1280 nM
- DC50 (CDK9; read-out: TOV21G CDK9 DC50, 24 h): > 10000 nM
- degradation selectivity over CDK9 (CDK9; vs CDK2 degradation): > 500 fold
- IC50 (pRB S807/811; read-out: MKN1 pRB IC50): 23 nM
- IC90 (pRB S807/811; read-out: MKN1 pRB IC90): 110 nM
- monkey F (Monkey PK; IV 0.07 / PO 1 mg/kg, 1 mg/kg): 12%
- Vd (Monkey PK; plasma, iv, 0.07 mg/kg): 5.7 L/kg
- clearance (Monkey PK; plasma, iv, 0.07 mg/kg): 9.1 mL/min/kg
- half-life (Monkey PK; plasma, iv, 0.07 mg/kg): 8.6 h
- AUC(0-t) (Monkey PK; plasma, po, 1 mg/kg): 0.25 µM·h
- Cmax (Monkey PK; plasma, po, 1 mg/kg): 14 nM
- dog F (Dog PK; IV 0.1 / PO 1 mg/kg, 1 mg/kg): 12%
- Vd (Dog PK; plasma, iv, 0.1 mg/kg): 4.2 L/kg
- clearance (Dog PK; plasma, iv, 0.1 mg/kg): 3.9 mL/min/kg
- half-life (Dog PK; plasma, iv, 0.1 mg/kg): 14.4 h
- AUC(0-t) (Dog PK; plasma, po, 1 mg/kg): 0.557 µM·h
- Cmax (Dog PK; plasma, po, 1 mg/kg): 26 nM
- significantly downregulated proteins (human PBMC cells): CDK2 as the only significantly downregulated protein
- AUC0–24h/D ([1]; PO 10 mg/kg BID × 3 days): 624 mg·h/mL
- AUC0–24h/D ([1]; PO 25 mg/kg BID × 3 days): 709 mg·h/mL
- AUC0–24h free ([1]; PO 25 mg/kg BID × 3 days): 14.2 ng·h/mL
- AUC0–24h/D ([1]; PO 50 mg/kg BID × 3 days): 949 mg·h/mL
- AUC0–24h free ([1]; PO 50 mg/kg BID × 3 days): 19.0 ng·h/mL
- AUC0–24h/D ([1]; PO 50 mg/kg QD × 3 days): 1377 mg·h/mL
- AUC0–24h free ([1]; PO 50 mg/kg QD × 3 days): 27.5 ng·h/mL
- fraction unbound at 30 min, 1 µM (Plasma protein binding): 0.0198
- antitumor activity (HCC1569 tumor xenograft; 25 mg/kg PO BID): stable disease (30 to −30% is stable disease (0% = Tumor Stasis))
- day 28 %dTV (mean ± SEM) (HCC1569 tumor xenograft; 25 mg/kg PO BID): –26 ± 9%
- antitumor activity (HCC1569 tumor xenograft; 50 mg/kg PO BID): stable disease (30 to −30% is stable disease (0% = Tumor Stasis))
- day 28 %dTV (mean ± SEM) (HCC1569 tumor xenograft; 50 mg/kg PO BID): –24 ± 10%
- antitumor activity (HCC1569 tumor xenograft; 50 mg/kg PO QD): stable disease (30 to −30% is stable disease (0% = Tumor Stasis))
- inhibition of pRB in tumor (pRB): 90% and > 90%
